Data taken from paper PMC9993039, “Synthesis and radiolabelling of PSMA-targeted derivatives containing GYK/MVK cleavable linkers” (Royal Society Open Science, 2023).

Tests used:
[1] = system: metastatic castration-resistant prostate cancer; conditions: cited from earlier work
Description: The prostate-specific membrane antigen (PSMA) is overexpressed in prostate cancer cells, and its expression increases with disease progression. PSMA is therefore an attractive target for TRT of prostate cancer. Currently, several compounds targeting this protein are being investigated for imaging and treatment of prostate cancer, with PSMA-617 advancing as a lead candidate (figure 1).

[2] = in vivo; cited from earlier work
Description: The purpose of this study is to report the synthesis and radiolabelling of new PSMA derivatives containing: (i) a PSMA-targeting vector, (ii) an albumin binder, namely 4-(p-iodophenyl)butyric acid, (iii) an amino acid sequence which could be specifically recognized and cleaved by renal brush border (RBB) enzymes, and (iv) a DOTA chelator which can be labelled with In-111 for imaging or Lu-177 for therapy. Previous studies reported that presence of an albumin-binding moiety increases blood residence time of the radiopharmaceutical agent, and ultimately leads to a higher accumulation of the PSMA ...

[3] = system: renal brush border (RBB) enzymes; conditions: Cy5 labelled model peptide; cited from earlier work
Description: High kidney uptake of radiopharmaceuticals can usually be explained by the long residence time of radiometabolites generated after lysosomal proteolysis. This process is followed by glomerular filtration and reabsorption of the radiometabolites in renal cells. By inserting a linker which is specifically cleaved by enzymes on the brush border membrane located in the lumen of the proximal renal tubule, the radiometal-chelator moiety can be rapidly excreted via the bladder while the peptide remains in the kidneys. The MVK sequence was initially conjugated to antibody fragments by Uehara et ...

[4] = assay type: in vitro ADME, mouse
Description: Stability was determined for both the In-111 and Lu-177 labelled compounds by mixing 20 µl of radiolabelled sample (approx. 5 MBq) with 80 µl phosphate buffered saline (PBS) (0.01 M, pH 7.4), or mixing 70 µl of radiolabelled sample (approx. 20 MBq) with 330 µl of mouse serum, and heating at 37°C for up to 24 h. After incubation, 50 µl of the mouse serum solution is added to a separate vial containing acetonitrile (50 µl) and the sample is centrifuged for 20 min. The supernatant and precipitate are separated, and the activity is measured to determine the binding to serum proteins. The supernatant is then analysed by radio-HPLC. The PBS solution is loaded directly onto the radio-HPLC.

[5] = system: renal brush border enzymes; conditions: labelled with gallium-68; cited from earlier work
Description: We hypothesized that this radiolabelled impurity might come from the radiation-induced oxidation of the methionine residue of the cleavable linker. Bendre et al. recently synthesized DOTA-AmBz-M(O)VK(HTK01166)-OH, the oxidized analogue of the PSMA-targeted derivative DOTA-AmBz-MVK(HTK01166)-OH, and performed labelling with gallium-68. They observed that the oxidized product was not cleaved by the renal brush border enzymes. It confirms that oxidation of the methionine is undesirable, as it leads to loss of enzyme recognition and consequently less cleavage of the conjugate. This radiolys ...

[6] = in vivo; cited from earlier work; remark: listed apart in the source
Description: In this study, we synthesized PSMA-targeted radiopharmaceuticals that combined an albumin binder and a cleavable linker to optimize their therapeutic efficacy. We selected the albumin-binder containing PSMA-617 derivative HTK01169 (figure 1), reported by Kuo et al., as a reference. [^177Lu]Lu-HTK01169 delivers an eightfold higher dose to the tumour than [^177Lu]Lu-PSMA-617, but also a 17-fold higher dose to the kidneys. The amino acid sequences Gly-Tyr-Lys (GYK) and Met-Val-Lys (MVK) were selected as the cleavable linkers. Effective cleavage of the MVK sequence in ^67/68Ga-labell ... || The purpose of this study is to report the synthesis and radiolabelling of new PSMA derivatives containing: (i) a PSMA-targeting vector, (ii) an albumin binder, namely 4-(p-iodophenyl)butyric acid, (iii) an amino acid sequence which could be specifically recognized and cleaved by renal brush border (RBB) enzymes, and (iv) a DOTA chelator which can be labelled with In-111 for imaging or Lu-177 for therapy. Previous studies reported that presence of an albumin-binding moiety increases blood residence time of the radiopharmaceutical agent, and ultimately leads to a higher accumulation of the PSMA ...

[7] = plus standard of care, versus standard of care, ref NCT03511664

## [^177Lu]Lu-PSMA-617
[1]
  patients who do not respond significantly to the treatment: approximately 30%
[1]; human, in vivo
  incidence of adverse effects (grade 3 or 4): 52.7%
[1]; patients
  response rates: over 50%
[1]; [7]
  imaging-based progression free survival (median): 8.7 months
  overall survival (median): 15.3 months
[2]
  uptake in the kidneys at 1 h: approximately 10 % IA g^−1
  uptake in the kidneys at 24 h: less than 1 % IA g^−1

## H-GGGYK(Cy5)-NH2 [Cy5 labelled model peptide with GYK linker]
[3]
  cleavage on incubation with RBB enzymes: quantitative cleavage

## H-GGGFK(Cy5)-NH2 [Cy5 labelled model peptide with GFK linker]
[3]
  cleavage on incubation with RBB enzymes: 82%

## N[C@@H](CCCCNC(=O)CN1CCN(CC(=O)O)CCN(CC(=O)O)CCN(CC(=O)O)CC1)C(=O)N[C@@H](Cc1ccc(O)cc1)C(=O)NCC(=O)NCCCC[C@H](NC(=O)[C@H](CCC(=O)O)NC(=O)CCCc1ccc(I)cc1)C(=O)NC[C@H]1CC[C@H](C(=O)N[C@@H](Cc2ccc3ccccc3c2)C(=O)NCCCC[C@H](NC(=O)N[C@@H](CCC(=O)O)C(=O)O)C(=O)O)CC1 [[^111In]-7] [metal not drawn]
[4]
  peak at 2.9 min (radiolabelled side-product) in mouse serum: 62%

## DOTA-AmBz-M(O)VK(HTK01166)-OH
[5]
  cleavage by renal brush border enzymes: not cleaved

## O=C(O)CC[C@H](NC(=O)N[C@@H](CCCCNC(=O)[C@H](Cc1ccc2ccccc2c1)NC(=O)[C@H]1CC[C@H](CNC(=O)[C@H](CCCCNC(=O)CN2CCN(CC(=O)O)CCN(CC(=O)O)CCN(CC(=O)O)CC2)NC(=O)[C@H](CCC(=O)O)NC(=O)CCCc2ccc(I)cc2)CC1)C(=O)O)C(=O)O [[^177Lu]Lu-HTK01169, metal not drawn]
[6]
  radiation dose to the kidneys relative to [177Lu]Lu-PSMA-617: 17 fold
  radiation dose to the tumour relative to [177Lu]Lu-PSMA-617: eightfold
